# Measured values: ChEMBL document CHEMBL1765059, “Bunodosine 391: an analgesic acylamino acid from the venom of the sea anemone Bunodosoma cangicum” (J Nat Prod, 2011)
# Active and inactive are the calls of the source.
# Legend:
# Type in all cases: functional, organism-based
# [1] = test system: Rattus norvegicus; assay: Antinociceptive activity in i.pl dosed Wistar rat assessed as increase in pain threshold by paw pressure test
# [2] = test system: Rattus norvegicus; assay: Antiinflammatory activity against carrageenan-induced edema in Wistar rat assessed as paw thickness at 105 nm/paw i.pl administered before 30 mins of carrageenan challenge
# [3] = test system: Rattus norvegicus; assay: Antinociceptive activity against carrageenan-induced hyperalgesia in Wistar rat assessed as increase in pain threshold at 105 nm/paw, i.pl administered after 150 mins of carrageenan challenge by paw pressure test
# [4] = test system: Rattus norvegicus; assay: Antinociceptive activity against carrageenan-induced hyperalgesia in Wistar rat assessed as increase in pain threshold at 105 nm/paw, i.pl in presence of 5 mg/kg of nonselective serotonin antagonist methysergide treated 30 mins before compound challenge; design: dose 5 mg/kg
# [5] = species: Rattus norvegicus; assay: Antinociceptive activity against carrageenan-induced hyperalgesia in Wistar rat assessed as increase in pain threshold at 105 nm/paw, i.pl in presence of 1 ug/paw of opioid antagonist naloxone treated 30 mins before compound challenge
compound,measurement,setting,value
O=C(Cc1c[nH]c2cc(Br)ccc12)N[C@@H](Cc1c[nH]cn1)C(=O)O,Activity,[1],Dose-dependent effect
same,inhibition,[2],inactive
same,inhibition,[3],Active
same,Activity,[4],inactive
same,Activity,[5],Active
